In the CheMixHub viscosity set:
± gives the uncertainty stated by the source.

Assay: xn = mol fraction of the nth substance listed

Cc1ccccc1C + COCCO
viscosity [mPa·s], 101 kPa
Details | 298.15 K | 308.15 K
x2 = 0.0517 | 0.769 ± 0.013 | 0.666 ± 0.012
x2 = 0.1491 | 0.795 ± 0.014 | 0.686 ± 0.012
x2 = 0.2491 | 0.83 ± 0.014 | 0.714 ± 0.013
x2 = 0.3509 | 0.877 ± 0.015 | 0.749 ± 0.013
x2 = 0.4485 | 0.934 ± 0.016 | 0.79 ± 0.014
x2 = 0.4919 | 0.963 ± 0.016 | 0.811 ± 0.014
x2 = 0.5537 | 1.009 ± 0.017 | 0.845 ± 0.014
x2 = 0.6432 | 1.088 ± 0.018 | 0.901 ± 0.015
x2 = 0.7525 | 1.206 ± 0.02 | 0.983 ± 0.017
x2 = 0.8492 | 1.334 ± 0.022 | 1.07 ± 0.018
x2 = 0.9547 | 1.506 ± 0.024 | 1.185 ± 0.02

OCCOCCOCCO + COCCO
viscosity [mPa·s], 101 kPa
Details | 293.15 K | 298.15 K | 303.15 K
x2 = 0.0555 | 35.94 ± 0.23 | 30.26 ± 0.2 | 26.08 ± 0.17
x2 = 0.1005 | 32.08 ± 0.21 | 27.25 ± 0.18 | 23.69 ± 0.15
x2 = 0.1526 | 27.98 ± 0.18 | 24.06 ± 0.16 | 21.13 ± 0.14
x2 = 0.201 | 24.53 ± 0.16 | 21.36 ± 0.14 | 18.93 ± 0.12
x2 = 0.2544 | 21.12 ± 0.14 | 18.65 ± 0.12 | 16.69 ± 0.11
x2 = 0.3016 | 18.45 ± 0.12 | 16.49 ± 0.11 | 14.87 ± 0.099
x2 = 0.3421 | 16.37 ± 0.11 | 14.79 ± 0.099 | 13.44 ± 0.09
x2 = 0.4006 | 13.74 ± 0.092 | 12.58 ± 0.085 | 11.54 ± 0.078
x2 = 0.4493 | 11.83 ± 0.08 | 10.95 ± 0.074 | 10.13 ± 0.069
x2 = 0.4936 | 10.3 ± 0.07 | 9.622 ± 0.066 | 8.98 ± 0.062
x2 = 0.5499 | 8.592 ± 0.059 | 8.124 ± 0.057 | 7.664 ± 0.054
x2 = 0.6007 | 7.271 ± 0.051 | 6.95 ± 0.049 | 6.621 ± 0.047
x2 = 0.6501 | 6.157 ± 0.044 | 5.943 ± 0.043 | 5.714 ± 0.041
x2 = 0.7042 | 5.105 ± 0.038 | 4.973 ± 0.037 | 4.825 ± 0.036
x2 = 0.7531 | 4.289 ± 0.032 | 4.207 ± 0.031 | 4.115 ± 0.031
x2 = 0.7931 | 3.714 ± 0.028 | 3.65 ± 0.027 | 3.584 ± 0.027
x2 = 0.8455 | 3.061 ± 0.023 | 2.991 ± 0.022 | 2.954 ± 0.022
x2 = 0.9009 | 2.487 ± 0.019 | 2.385 ± 0.018 | 2.346 ± 0.018
x2 = 0.95 | 2.069 ± 0.016 | 1.924 ± 0.015 | 1.856 ± 0.014

Cl[Si](Cl)(Cl)Cl + COCOC
303.1 K, 101 kPa
Details | viscosity [mPa·s]
x2 = 0.0989 | 0.419 ± 0.017
x2 = 0.1906 | 0.412 ± 0.017
x2 = 0.2879 | 0.402 ± 0.017
x2 = 0.3682 | 0.405 ± 0.017
x2 = 0.3933 | 0.41 ± 0.017
x2 = 0.4424 | 0.414 ± 0.017
x2 = 0.5106 | 0.428 ± 0.018
x2 = 0.596 | 0.458 ± 0.019
x2 = 0.6589 | 0.472 ± 0.019
x2 = 0.7083 | 0.461 ± 0.019
x2 = 0.7984 | 0.434 ± 0.018
x2 = 0.8477 | 0.414 ± 0.017
x2 = 0.9026 | 0.369 ± 0.016

CCC#N + CS(C)=O
viscosity [mPa·s]
Details | 298.15 K | 303.15 K | 308.15 K | 313.15 K | 318.15 K | 323.15 K
101 kPa, x2 = 0.1078 | 0.49 ± 0.01 | 0.47 ± 0.01 | 0.44 ± 0.01 | 0.43 ± 0.01 | 0.4 ± 0.01 | 0.35 ± 0.01
101 kPa, x2 = 0.2092 | 0.56 ± 0.01 | 0.54 ± 0.01 | 0.51 ± 0.01 | 0.48 ± 0.01 | 0.46 ± 0.01 | 0.4 ± 0.01
101 kPa, x2 = 0.3026 | 0.63 ± 0.01 | 0.6 ± 0.01 | 0.57 ± 0.01 | 0.55 ± 0.01 | 0.52 ± 0.01 | 0.45 ± 0.01
101 kPa, x2 = 0.3983 | 0.72 ± 0.02 | 0.69 ± 0.02 | 0.65 ± 0.01 | 0.62 ± 0.01 | 0.6 ± 0.01 | 0.51 ± 0.01
101 kPa, x2 = 0.4995 | 0.85 ± 0.02 | 0.81 ± 0.02 | 0.75 ± 0.02 | 0.71 ± 0.02 | 0.68 ± 0.02 | 0.58 ± 0.01
101 kPa, x2 = 0.6026 | 1.01 ± 0.02 | 0.96 ± 0.02 | 0.89 ± 0.02 | 0.84 ± 0.02 | 0.79 ± 0.02 | 0.68 ± 0.02
101 kPa, x2 = 0.7077 | 1.2 ± 0.03 | 1.12 ± 0.02 | 1.04 ± 0.02 | 0.98 ± 0.02 | 0.92 ± 0.02 | 0.78 ± 0.02
101 kPa, x2 = 0.7966 | 1.39 ± 0.03 | 1.29 ± 0.03 | 1.2 ± 0.03 | 1.1 ± 0.02 | 1.05 ± 0.02 | 0.89 ± 0.02
101 kPa, x2 = 0.9014 | 1.67 ± 0.04 | 1.54 ± 0.03 | 1.4 ± 0.03 | 1.31 ± 0.03 | 1.23 ± 0.03 | 1.03 ± 0.02
101.33 kPa, x1 = 0.1009 | – | 1.547 ± 0.0093 | – | – | – | –
101.33 kPa, x1 = 0.202 | – | 1.322 ± 0.0081 | – | – | – | –
101.33 kPa, x1 = 0.3031 | – | 1.12 ± 0.007 | – | – | – | –
101.33 kPa, x1 = 0.4043 | – | 0.9436 ± 0.006 | – | – | – | –
101.33 kPa, x1 = 0.499 | – | 0.8012 ± 0.0053 | – | – | – | –
101.33 kPa, x1 = 0.6002 | – | 0.6745 ± 0.0047 | – | – | – | –
101.33 kPa, x1 = 0.7153 | – | 0.5619 ± 0.0042 | – | – | – | –
101.33 kPa, x1 = 0.798 | – | 0.4937 ± 0.0039 | – | – | – | –
101.33 kPa, x1 = 0.8994 | – | 0.4328 ± 0.0036 | – | – | – | –

CCCCCCCCCCO + CS(C)=O
313 K, 101 kPa
Details | viscosity [mPa·s]
x2 = 0.0732 | 5.748 ± 0.15
x2 = 0.2168 | 4.662 ± 0.12
x2 = 0.3082 | 4.127 ± 0.11
x2 = 0.3986 | 3.711 ± 0.097
x2 = 0.5096 | 3.248 ± 0.085
x2 = 0.5918 | 2.964 ± 0.077
x2 = 0.6951 | 2.596 ± 0.067
x2 = 0.8064 | 2.203 ± 0.057
x2 = 0.9009 | 1.838 ± 0.048

CCOC(=O)OCC + CS(C)=O
308.15 K, 101 kPa
Details | viscosity [mPa·s]
x2 = 0.0902 | 0.7 ± 0.008
x2 = 0.1358 | 0.719 ± 0.009
x2 = 0.2655 | 0.789 ± 0.009
x2 = 0.3678 | 0.836 ± 0.01
x2 = 0.468 | 0.928 ± 0.011
x2 = 0.5579 | 1.006 ± 0.012
x2 = 0.6013 | 1.047 ± 0.012
x2 = 0.6456 | 1.093 ± 0.013
x2 = 0.7167 | 1.172 ± 0.014
x2 = 0.7783 | 1.249 ± 0.015
x2 = 0.8439 | 1.344 ± 0.016
x2 = 0.9239 | 1.487 ± 0.017
